Entries after “also recorded” stand apart in the source; their conditions may differ.
How the values were obtained:
[1] = system: adhesion of monocytes to HUVECs; assay: Monocyte adhesion assay on HUVECs; assay type: cell-based, human; details: 200 nM; for effect on monocyte adhesion to HUVECs (in words): ox-LDL treated
Method: (§1) FIG. 4A, FIG. 4B, FIG. 4C, FIG. 4D and FIG. 4E depict the effect of lead molecules on ox-LDL-induced the activation of MAPKs in HUVECs, VCAM-1 expression and monocyte adhesion onto HUVECs. […] (FIG. 4B) Western blot analyses showing phospho-p38MAPK expression in HUVECs following exposure to 200 nM of each compound for 30 min, and subsequently exposed to 5 μg/mL ox-LDL for 6 hours. […] (FIG. 4D) The variation of VCAM-1 mRNA expression levels with different concentrations of the led compounds. The concentrations are indicated on the X-axis and the VCAM-1 mRNA levels are shown on the Y-axis. The plots for all five molecules are shown in separate colors. […] Graphs show data as mean (±SD); n=3 (for Western blot and PCR assays) or n=20 (for monocyte adhesion assay). *P<0.01 vs. control; #P<0.01 or <0.05 vs. ox-LDL group.
The ox-LDL-induced expression of adhesion molecules, such as VCAM-1, facilitates the adhesion of inflammatory cells, such as monocytes.
Human monocytes were isolated from blood from the healthy donors and cultured in DMEM supplemented with 10% FBS. HUVECs were plated into 6-well plates. When the cells reached 70-80% confluence, they were treated with 200 nM of each of 5 molecules for 30 min, and subsequently exposed to […] ox-LDL for 6 h. After washing with PBS, the medium was replaced, and then monocytes ([…]) were added to each well (4 wells/group) onto HUVECs. Thirty minutes later, the medium containing monocytes were aspired and the unattached monocytes were carefully washed out with PBS. Five fields of each well were randomly captured under a microscope. The number of adherent monocyte was counted and averaged.

[2] = system: VCAM-1 protein expression; assay: ox-LDL-induced VCAM-1 protein expression in HUVECs (Western blotting); assay type: cell-based, human; details: 200 nM, 5 μg/ml ox-LDL
Method: as §1
(§2) It is known that the activation of LOX-1 by ox-LDL in endothelial cells stimulates the expression of leukocyte adhesion molecules^26. In this study, VCAM-1 expression in HUVECs in the presence of 5 μg/ml ox-LDL was measured. […] VCAM-1 mRNA expression in HUVECs exposed to 5 μg/mL ox-LDL for 6 hrs was also measured.
HUVECs were plated into 6-well cell culture plates. When the cells were reached 70% confluence, they were treated with 200 nM of each of 5 molecules for 30 min, and subsequently exposed to […] ox-LDL for 6 h. After washing with PBS for 2 times, the cells were treated with Cell Lysis Buffer (Promega, Madison, Wis.) with protease Inhibitor and phosphatase Inhibitor (Sigma-Aldrich, St. Louis, Mo.). The protein concentrations were measured by Bradford protein assay. Proteins (20 tg) were separated by electrophoresis in 12% precast SDS-PAGE gels, and were transferred onto Nitrocellulose Blotting Membrane (GE Healthcare Life Science, Piscataway, N.J.). The membranes were then incubated with LOX-1, VCAM-1 (Abcam, Cambridge, Mass.), ERK1/2, phospho-ERK1/2, phospho-p38MAPK (Cell Signaling Technology, Inc., Danvers, Mass.), or […] (Santa Cruz Biotechnology, Inc., Dallas, Tex.) primary antibodies (1:1000˜1:2000) in blocking solution at 4° C. overnight. Following wash with TBS-1 for 3 times, the blots were incubated with HRP-conjugated secondary antibodies (1:10000) in blocking solution for 1 hour at room temperature. After 3 washes with PBS, the blots were treated with Western Blotting Luminol Reagents (Santa Cruz Biotechnology) for 3 min and then exposed to Blue Basic Autorad Film (GeneMate, Kaysville, Utah). The protein bands were scanned by a Gel Doc™ XR System (Bio-Rad, Hercules, Calif.), and the density of each band was quantified by Image J software. The relative expression of target proteins was calculated with comparison to […] bands.

VCAM-1 mRNA = assay: ox-LDL-induced VCAM-1 mRNA expression in HUVECs (q-PCR); assay type: cell-based, human; details: 5 μg/mL ox-LDL for 6 hrs
Method: FIG. 4A, FIG. 4B, FIG. 4C, FIG. 4D and FIG. 4E depict the effect of lead molecules on ox-LDL-induced the activation of MAPKs in HUVECs, VCAM-1 expression and monocyte adhesion onto HUVECs. […] (FIG. 4B) Western blot analyses showing phospho-p38MAPK expression in HUVECs following exposure to 200 nM of each compound for 30 min, and subsequently exposed to 5 μg/mL ox-LDL for 6 hours. […] (FIG. 4D) The variation of VCAM-1 mRNA expression levels with different concentrations of the led compounds. The concentrations are indicated on the X-axis and the VCAM-1 mRNA levels are shown on the Y-axis. The plots for all five molecules are shown in separate colors. […]
as §2
HUVECs were plated into 12-well plates, and treated with 0, 20, 200 and 2000 nM of each of 5 molecules […] for 30 min, and subsequently exposed to […] ox-LDL for 6 h at 37° C. […] Data was analyzed by using MX3000P software. Relative mRNA expression was quantified using the comparative threshold cycle (Ct) method. […]

[3] = Liver microsomal stability, human; assay type: in vitro ADME; details: human liver microsomes
Method: Metabolic stability or clearance is recognized as one of the main determinants of drug concentration in blood. The metabolic stability of Mol-5 was tested using liver microsomes form mice and humans to obtain stability ranking and intrinsic clearance.

| half-life [3] [min] | metabolic stability (in words) [3] | microsomal CLint [3] [µL/min/mg] | Structure (SMILES) | reduction of monocyte adhesion [1] [%] | effect on monocyte adhesion to HUVECs (in words) [1] | effect on ox-LDL-induced VCAM-1 protein expression [2] | effect on ox-LDL-mediated VCAM-1 mRNA upregulation (VCAM-1 mRNA) | effect on ox-LDL-induced VCAM-1 protein expression ([2]; listed as MoL-4) |
| --- | --- | --- | --- | --- | --- | --- | --- | --- |
|  |  |  | CCOCCCNC(=O)CCN1C(=O)COc2ccccc21 [Mol-1] | 25 | decreased the number of monocytes adherent to HUVECs; also recorded: markedly inhibited | significantly reduced |  |  |
|  |  |  | CCCn1c(CCNC(=O)CCCO)nc2ccccc21 [Mol-4] | 30 | decreased the number of monocytes adherent to HUVECs; also recorded: markedly inhibited | significantly inhibited | significantly reduced; also recorded: significantly inhibited | significantly reduced |
| 55.3 ± 2.2 | reasonable stability | 25.1 ± 1 | Cc1cc(C)n(CC(O)COc2ccccc2)n1 (stereo not drawn) [Mol-5, 1-(3,5-dimethyl-1H-pyrazol-1-yl)-3-phenoxypropan-2-ol] | 35 | decreased the number of monocytes adherent to HUVECs; also recorded: markedly inhibited | significantly reduced; also recorded: significantly inhibited | significantly reduced; also recorded: significantly inhibited |  |

Source: patent US11465972B2, “Inhibitors of oxidized low-density lipoprotein receptor 1 and methods of use thereof” (United States Government as represented by the Department …, priority 2015, dated 2022)
